# Results taken from patent publication US9476099B2 (TRUSTEES OF DARTMOUTH COLLEGE, priority 2012, dated 2016).
# Test system: gene promoters in NT2/D1-R1 control and DNMT3B knockdown cells
# Test: Genome-wide promoter methylation analysis, HumanMethylation27 BeadChip (Table 15)
# Type: cell-based, human
# Settings: sh-3b + 5aza
# Procedure: DNA methylation analysis was performed in samples in triplicate using the […] […] assay with the HumanMethylation27 BeadChip ([…]) and the BeadChip was scanned on the BeadArray Reader ([…]), according to the manufacturer's instructions. Raw data was normalized and analyzed with Genome Studio software ([…]). The HumanMethylation27 BeadChip assays 27,578 CpGs covering more than 14,000 genes, mostly from promoter regions. […] Hierarchical clustering was performed as stated above. HumanMethylation27 BeadChip data and gene expression microarray data were submitted to NCBI GEO.
smiles,measurement,value
Nc1ncn([C@H]2C[C@H](O)[C@@H](CO)O2)c(=O)n1 [5aza],ABCC1 cg20158248 promoter methylation Mean,0.458
same,ACP1 cg27226618 promoter methylation Mean,0.490
same,ADCY4 cg16761581 promoter methylation Mean,0.297
same,ADRA2A cg26926521 promoter methylation Mean,0.682
same,ALDH1A3 cg19224278 promoter methylation Mean,0.310
same,ALKBH4 cg07404418 promoter methylation Mean,0.312
same,ALX4 cg04549333 promoter methylation Mean,0.880
same,ALX4 cg04970352 promoter methylation Mean,0.645
same,ALX4 cg19358442 promoter methylation Mean,0.834
same,ANKRD13C cg19342782 promoter methylation Mean,0.372
same,ANKRD45 cg15883716 promoter methylation Mean,0.793
same,APC cg16970232 promoter methylation Mean,0.269
same,BLOC1S2 cg26610808 promoter methylation Mean,0.526
same,BTBD5 cg00660989 promoter methylation Mean,0.214
same,BTNL8 cg24024214 promoter methylation Mean,0.781
same,C1QL1 cg13818573 promoter methylation Mean,0.255
same,C1orf188 cg15731815 promoter methylation Mean,0.321
same,C10orf107 cg16063112 promoter methylation Mean,0.230
same,C14orf173 cg24404909 promoter methylation Mean,0.248
same,C16orf60 cg17858663 promoter methylation Mean,0.177
same,C19orf4 cg07379574 promoter methylation Mean,0.733
same,C19orf22 cg18022193 promoter methylation Mean,0.180
same,CAMK1G cg27337148 promoter methylation Mean,0.715
same,CD58 cg21039631 promoter methylation Mean,0.325
same,CDKN2B cg04675937 promoter methylation Mean,0.167
same,CDKN2B cg08390209 promoter methylation Mean,0.150
same,CDX1 cg15452204 promoter methylation Mean,0.424
same,CEACAM4 cg10237469 promoter methylation Mean,0.430
same,CEACAM7 cg19623751 promoter methylation Mean,0.616
same,CGI-38 cg13067215 promoter methylation Mean,0.274
same,CHD5 cg00282347 promoter methylation Mean,0.682
same,CHMP2A cg14042128 promoter methylation Mean,0.354
same,COL11A1 cg12884406 promoter methylation Mean,0.331
same,COPS7B cg05422352 promoter methylation Mean,0.338
same,CRSP7 cg24459023 promoter methylation Mean,0.268
same,CSPG3 cg06952310 promoter methylation Mean,0.350
same,CSTF2T cg06712026 promoter methylation Mean,0.277
same,CTAGE1 cg02847216 promoter methylation Mean,0.727
same,CUL3 cg09509863 promoter methylation Mean,0.309
same,CYP4F12 cg25813714 promoter methylation Mean,0.721
same,DCTD cg14892066 promoter methylation Mean,0.171
same,DDEF2 cg22190705 promoter methylation Mean,0.187
same,DEFB118 cg03014957 promoter methylation Mean,0.548
same,DNASE2 cg07955356 promoter methylation Mean,0.207
same,DPH1 cg11516377 promoter methylation Mean,0.319
same,DYRK1B cg18851831 promoter methylation Mean,0.820
same,EIF2B3 cg16604218 promoter methylation Mean,0.360
same,ELSPBP1 cg19404979 promoter methylation Mean,0.406
same,ENOSF1 cg16112050 promoter methylation Mean,0.724
same,EPN3 cg24006361 promoter methylation Mean,0.739
same,EREG cg19308222 promoter methylation Mean,0.252
same,FAM111B cg13864937 promoter methylation Mean,0.366
same,FLJ10726 cg14145762 promoter methylation Mean,0.292
same,FLJ11200 cg09001953 promoter methylation Mean,0.335
same,FLJ23514 cg16404106 promoter methylation Mean,0.436
same,FLRT3 cg23127998 promoter methylation Mean,0.249
same,FLT3LG cg01667384 promoter methylation Mean,0.179
same,FXYD7 cg22392666 promoter methylation Mean,0.720
same,G10 cg02798801 promoter methylation Mean,0.349
same,GABRB2 cg16509658 promoter methylation Mean,0.176
same,GALNT4 cg16606638 promoter methylation Mean,0.245
same,GAS8 cg03634997 promoter methylation Mean,0.814
same,GBX2 cg23095584 promoter methylation Mean,0.268
same,GNAS cg27661264 promoter methylation Mean,0.334
same,GRB10 cg26163537 promoter methylation Mean,0.310
same,GUP1 cg24938727 promoter methylation Mean,0.441
same,HACE1 cg23047681 promoter methylation Mean,0.156
same,HGF cg06745740 promoter methylation Mean,0.404
same,HNRNPG-T cg22062068 promoter methylation Mean,0.650
same,HOXB4 cg25145670 promoter methylation Mean,0.311
same,HRASLS cg08376864 promoter methylation Mean,0.309
same,HYPK cg00480356 promoter methylation Mean,0.630
same,ICAM1 cg08607082 promoter methylation Mean,0.149
same,IFI16 cg07463059 promoter methylation Mean,0.386
same,IFI44 cg07107453 promoter methylation Mean,0.330
same,IFNA2 cg13235447 promoter methylation Mean,0.480
same,IGF2AS cg20792294 promoter methylation Mean,0.211
same,IGFBP5 cg19008649 promoter methylation Mean,0.264
same,IGSF9 cg19111262 promoter methylation Mean,0.576
same,IHH cg17178336 promoter methylation Mean,0.504
same,IL2RG cg01361446 promoter methylation Mean,0.834
same,IL18 cg11304234 promoter methylation Mean,0.478
same,INPP5B cg10784030 promoter methylation Mean,0.251
same,ITGB3BP cg18464559 promoter methylation Mean,0.121
same,KA21 cg23776012 promoter methylation Mean,0.410
same,KCNA3 cg03483626 promoter methylation Mean,0.208
same,KCNAB3 cg14918082 promoter methylation Mean,0.534
same,KCNB2 cg11754206 promoter methylation Mean,0.377
same,KCNK10 cg17671157 promoter methylation Mean,0.820
same,KLK7 cg19953406 promoter methylation Mean,0.680
same,LAMB1 cg10064162 promoter methylation Mean,0.295
same,LDHD cg24429836 promoter methylation Mean,0.510
same,LIG4 cg08216792 promoter methylation Mean,0.266
same,LYNX1 cg24046110 promoter methylation Mean,0.288
same,MC3R cg19226099 promoter methylation Mean,0.784
same,MGC26856 cg07684809 promoter methylation Mean,0.260
same,MLNR cg02620013 promoter methylation Mean,0.418
same,MPHOSPH6 cg16119274 promoter methylation Mean,0.280
same,MSX1 cg03199651 promoter methylation Mean,0.204
same,MYOD1 cg24322623 promoter methylation Mean,0.650
same,NCKIPSD cg04244987 promoter methylation Mean,0.242
same,NDP cg11614809 promoter methylation Mean,0.579
same,NEFH cg16042149 promoter methylation Mean,0.776
same,NEIL2 cg14329976 promoter methylation Mean,0.226
same,NME5 cg13707560 promoter methylation Mean,0.911
same,NME5 cg25507001 promoter methylation Mean,0.671
same,NOC3L cg07270175 promoter methylation Mean,0.464
same,NOX4 cg17063929 promoter methylation Mean,0.575
same,NPAS1 cg09628601 promoter methylation Mean,0.303
same,NRXN1 cg10917619 promoter methylation Mean,0.594
same,OR1N1 cg14598387 promoter methylation Mean,0.339
same,OR10J1 cg15700197 promoter methylation Mean,0.444
same,PACS1 cg01663295 promoter methylation Mean,0.329
same,PCDHB13 cg14592099 promoter methylation Mean,0.423
same,PCDHB13 cg24435562 promoter methylation Mean,0.273
same,PCDHGA12 cg11647681 promoter methylation Mean,0.623
same,PCGF5 cg17001035 promoter methylation Mean,0.664
same,PEPD cg06546607 promoter methylation Mean,0.229
same,PEX5L cg02430692 promoter methylation Mean,0.322
same,PI3 cg02442161 promoter methylation Mean,0.625
same,PIGL cg05310071 promoter methylation Mean,0.231
same,POU3F3 cg20291049 promoter methylation Mean,0.268
same,POU4F2 cg24199834 promoter methylation Mean,0.231
same,PTCH2 cg15329642 promoter methylation Mean,0.576
same,PTPN5 cg17233601 promoter methylation Mean,0.498
same,RASGEF1A cg07871503 promoter methylation Mean,0.574
same,RBPSUHL cg21835643 promoter methylation Mean,0.665
same,REM1 cg12153542 promoter methylation Mean,0.456
same,REM1 cg26299767 promoter methylation Mean,0.440
same,RLN3R1 cg12238343 promoter methylation Mean,0.451
same,RPL39L cg07441272 promoter methylation Mean,0.505
same,RRM2B cg07125123 promoter methylation Mean,0.288
same,RYR1 cg05471297 promoter methylation Mean,0.272
same,S100A12 cg02813121 promoter methylation Mean,0.719
same,SCUBE2 cg01081263 promoter methylation Mean,0.505
same,SCUBE2 cg19237879 promoter methylation Mean,0.493
same,SEMA3E cg08274234 promoter methylation Mean,0.207
same,SEMA6C cg01958916 promoter methylation Mean,0.255
same,SEPN1 cg21187265 promoter methylation Mean,0.381
